{"source": "patent US20250064948A1", "about": "“GCPII INHIBITION FOR THE TREATMENT OF SARCOPENIA AND AGING” (The Johns Hopkins University, priority 2022, published 2025)", "key": {"aged C57BL6/J mice [1]": {"test_system": "aged C57BL6/J mice", "assay": "2-PMPA treatment of aged C57BL6/J mice: muscle function, muscle mass, frailty, survival, plasma cytokines", "assay_type": "in vivo", "procedure": "To determine whether 2-PMPA treatment could delay muscle function loss in aged animals, 15-month old C57BL6/J mice were treated with 100 mg/kg of 2-PMPA IP daily for 5 months and monthly body weight, grip strength, compound muscle action potential (CMAP), open field behavior, end stage muscle weights and survival were monitored.\nAfter 5 months of treatment, 2-PMPA treated animals were moving more in the open field apparatus."}, "aged C57BL6/J mice [2]": {"test_system": "aged C57BL6/J mice", "assay": "2-PMPA treatment of aged C57BL6/J mice: muscle function, muscle mass, frailty, survival, plasma cytokines", "assay_type": "in vivo", "conditions": "15-month old WT mice, 100 mg/kg, 5 days per week for 5 months, vs vehicle"}, "[3]": {"conditions": "20 weeks of 2-PMPA treatment, plasma"}}}
{"smiles": "O=C(O)CCC(CP(=O)(O)O)C(=O)O", "note": "(stereo not shown) [Compound 2-PMPA, 2-(phosphonomethyl) pentanedioic acid]", "values": [{"measurement": "calf muscle area measured by MRI", "setting": "aged C57BL6/J mice [1]; 2 months on treatment, vs vehicle treated mice", "value": "significantly greater"}, {"measurement": "gastrocnemius muscle weights", "setting": "aged C57BL6/J mice [1]; 5 months of treatment, vs vehicle treated mice", "value": "significantly increased"}, {"measurement": "survival after 5 months of treatment", "setting": "aged C57BL6/J mice [1]; 15-month old C57BL6/J mice, 100 mg/kg 2-PMPA IP, 5 months, vehicle 8%", "value": 58, "unit": "%"}, {"measurement": "median survival exceeding the vehicle mice", "setting": "aged C57BL6/J mice [1]; 15-month old C57BL6/J mice, 100 mg/kg 2-PMPA, vs vehicle", "value": 106, "unit": "days"}, {"measurement": "plasma IFN-gamma", "setting": "aged C57BL6/J mice [1]; [3]", "value": "reduced"}, {"measurement": "plasma IL-1beta", "setting": "aged C57BL6/J mice [1]; [3]", "value": "reduced"}, {"measurement": "plasma TNF-alpha", "setting": "aged C57BL6/J mice [1]; [3]", "value": "reduced"}, {"measurement": "frailty index scores", "setting": "aged C57BL6/J mice [1]; after 5 months of treatment, vs vehicle-treated mice", "value": "significantly reduced"}, {"measurement": "body weight loss", "setting": "aged C57BL6/J mice [1]; after 5 months on 2-PMPA therapy, vs vehicle treated mice", "value": "significant delay"}, {"measurement": "gastrocnemius muscle fiber cross sectional area (CSA)", "setting": "aged C57BL6/J mice [1]; old mice treated with 2-PMPA vs vehicle treated old mice", "value": "significantly larger"}, {"measurement": "compound muscle action potential (CMAP) in the foot muscles", "setting": "aged C57BL6/J mice [2]", "value": "significantly improved"}, {"measurement": "grip strength", "setting": "aged C57BL6/J mice [2]", "value": "significantly improved"}, {"measurement": "movement in open field", "setting": "aged C57BL6/J mice [2]", "value": "significantly improved"}]}
